Assay results published in PMC9181938, “Fluorinated Analogues of Lepidilines A and C: Synthesis and Screening of Their Anticancer and Antiviral Activity” (Molecules, 2022).

How the values were obtained:
Experiment in all cases: Cytotoxicity MTT assay (0.1–1000 µM), CC50
[1] = system: HeLa cells; type: cell-based, Human; settings: MTT, 48 h, read-out: CC50 Cancer Cell Lines HeLa
[2] = system: A549 cells; type: cell-based, Human; settings: 48 h, read-out: CC50 Cancer Cell Lines A549
[3] = system: LLC-MK2 cells; type: cell-based, Macaca mulatta; settings: LLC-MK2, MTT, 48 h; read-out: CC50 Normal Cell Lines LLC-MK2
[4] = system: MRC-5 cells; type: cell-based, Human; settings: MRC-5, MTT, 48 h; read-out: CC50 Normal Cell Lines MRC-5
[5] = system: NCTC clone 929 cells; type: cell-based, Mus musculus; settings: NCTC clone 929, MTT, 48 h; read-out: CC50 Normal Cell Lines NCTC Clone 929
[6] = system: Vero cells; type: cell-based, Cercopithecus aethiops; settings: 48 h, read-out: CC50 Normal Cell Lines Vero
[7] = system: HepG2 cells; type: cell-based, Human; settings: 48 h, read-out: CC50 Cancer Cell Lines HepG2

Cc1c(C)[n+](Cc2cccc(F)c2)cn1Cc1ccccc1 [1e[PF6]] [1-Benzyl-3-(3-fluorobenzyl)-4,5-dimethylimidazolium hexafluorophosphate]
CC50 [1]: 0.08 ± 0.001 µM | CC50 [2]: 38 ± 3.46 µM | CC50 [3]: 150 ± 2.52 µM | CC50 [4]: 150 ± 4.17 µM | CC50 [5]: 148 ± 11.5 µM | CC50 [6]: 56.3 ± 3.21 µM | CC50 [7]: 317 ± 5.77 µM
